{"source": "patent US12588689B2", "about": "“Feed additive composition containing erythritol” (EASY BIO, INC, priority 2020, dated 2026)", "test_system": "broiler chickens (Ross 308)", "experiment": "Broiler chicken specification test, composition containing erythritol (noise and high temperature stress)", "assay_type": "in vivo", "description": "To investigate the influence of composition containing erythritol on high temperature stress reduction in summer season, 1,280 broiler chickens (Ross 308; male and female chickens) with average weight of 44.0 g and 1 day old were divided into eight treatment groups with 10 repetitions, and then, 16 chickens were arbitrarily located in total 80 fences, thereby performing breeding tests. The mixing rates represent weight ratios, and additives by treatment group are post-formulated in a farm. The erythritol (99%) used in the formulation was purchased at Vision Pharmalab Co., Ltd., and the beta-glucan was used with Biolife (ENT Co., Ltd., 40 to 50% beta-glucan content) used in the fourth embodiment of the present invention. • Control group (CON): Formulated feed • E: Formulated feed+0.02% erythritol • B: Formulated feed+0.02% beta-glucan • L: Formulated feed+0.02% lipidol • E+B: Formulated feed+0.02% erythritol+0.02% beta-glucan • E+L: Formulated feed+0.02% erythritol+0.02% lipidol • B+L: Formulated feed+0.02% beta-glucan+0.02% lipidol • E+B+L: Formulated feed+0.02% erythritol+0.02% beta-glucan+0.02% lipidol\nThe feed and water were sufficiently supplied and freely fed. So as to cause stress, 80 to 100 dB noise was produced two times per a day for ten minutes, and to cause high temperature stress, Temperature-Humidity Index (THI) as shown in FIG. 4 was kept.\nThe weights and feed intake were measured on week 1, week 3, and week 5 to calculate weight gain per day, feed intake per day, and feed conversion ratios (FCR), and the calculated results are listed in Table 6, together with mortality rates.", "note": "Marks after values point to notes of the source that are not given here."}
{"compound": "OC[C@@H](O)[C@@H](O)CO", "note": "[E, erythritol]", "values": [{"measurement": "Feed conversion ratio", "setting": "Step 1 (1~7 days of age)", "result": 1.36}, {"measurement": "Feed intake", "setting": "Step 1 (1~7 days of age)", "result": 19.4, "unit": "g/day"}, {"measurement": "Mortality rate", "setting": "Step 1 (1~7 days of age)", "result": 0.0, "unit": "%"}, {"measurement": "Weight gain", "setting": "Step 1 (1~7 days of age)", "result": 14.3, "unit": "g/day"}, {"measurement": "Weight", "setting": "Step 1 (1~7 days of age), 0.02% of each additive in formulated feed", "result": 144.0, "unit": "g"}, {"measurement": "Feed conversion ratio", "setting": "Step 2 (8~21 days of age)", "result": "1.74^a"}, {"measurement": "Feed intake", "setting": "Step 2 (8~21 days of age)", "result": 69.3, "unit": "g/day"}, {"measurement": "Mortality rate", "setting": "Step 2 (8~21 days of age)", "result": 1.3, "unit": "%"}, {"measurement": "Weight", "setting": "Step 2 (8~21 days of age)", "result": "705.4^e g"}, {"measurement": "Weight gain", "setting": "Step 2 (8~21 days of age)", "result": "40.1^d g/day"}, {"measurement": "Feed conversion ratio", "setting": "Step 3 (22~35 days of age)", "result": 1.88}, {"measurement": "Feed intake", "setting": "Step 3 (22~35 days of age)", "result": 236.9, "unit": "g/day"}, {"measurement": "Mortality rate", "setting": "Step 3 (22~35 days of age)", "result": 3.8, "unit": "%"}, {"measurement": "Weight", "setting": "Step 3 (22~35 days of age)", "result": "1592.3^e g"}, {"measurement": "Weight gain", "setting": "Step 3 (22~35 days of age)", "result": "126.7^c g/day"}, {"measurement": "Feed conversion ratio", "setting": "Total (1~35 days of age)", "result": "1.79^a"}, {"measurement": "Feed intake", "setting": "Total (1~35 days of age)", "result": "98.6^bc g/day"}, {"measurement": "Survival rate", "setting": "Total (1~35 days of age)", "result": 95.0, "unit": "%"}, {"measurement": "Weight gain", "setting": "Total (1~35 days of age)", "result": "55.3^e g/day"}, {"measurement": "weight gain, feed intake and feed conversion ratios compared with the control group", "setting": "entire breeding period, result in words", "result": "no significant difference"}]}
